# Key:
# [1] = test system: rejected reaction on heterogeneous skin implantation; assay: Heterogeneous skin implantation, recipient dogs given Yoshixol intravenously; type: in vivo, dog (rabbit skin)
# [2] = test system: primer (SEQ ID NO: 2) and snake DNA; assay: PCR with primer or DNA template treated with Yoshixol; type: biochemical
# Procedure: Effect of Yoshixol on PCR was investigated by DNA template which was extracted from snake (blue-green snake, captured at Matsumoto city, Nagano). The new synthesized dimer of (SEQ ID NO: 2) (5′>CTTCGGGCTTCGGG<3′) with 7 base-pair alignment (CTTCGGG) above-mentioned was used as a primer. PCR reaction was done by use of DNA thermal cycler (PJ-2000) made in PERKIN ELMER CETUS company. The following six combinations were prepared for the test samples. Those are two kinds of samples which consist of 5 μl of primer (100 pico mole/μl) with 5 μl of Yoshixol (P+) and without Yoshixol (P−). In addition, two kinds of samples which consist of 5 μl. of snake DNA (500 ng/μl) with 5 μl of Yoshixol (D+) and without Yoshixol (D−). And, additional two kinds of samples which consist of 1 μl of polymerase enzymes (Recombinant Taq DNA Polymerase, No. R001A, TaKaRa Shuzo Co., Otsu city: 5 unit/pd) with 1 μl of Yoshixol (Pm+) and without Yoshixol (Pm−). After each sample was placed for 10 minutes at room temperature, each sample was diluted in distilled water. And, it is adjusted in a primer solution of 10 picomole/μl, DNA solution of 50 ng/μl and a polymerase enzymes solution of 0.5 unit/μl. Then, the following combinations were prepared. […] In each combination, amount of cDNA synthesis was amplified by a PCR method and was measured. […]
# [3] = test system: pseudomonas aeruginosa; assay: Histological observation of pseudomonas aeruginosa after treatment; type: cell-based; settings: after treatment with Yoshixol
# [4] = test system: thrombus; assay: Thrombolytic effect on thrombus, phase contrasted microscopy; type: cell-based, human or canine
# Procedure: In order to investigate a thrombolytic effect of Yoshixol on thrombus, 1 ml of human blood or canine blood were sampled by a syringe and transferred into the Petori-schale (grainer lab. GmHB) so that thrombus formation and rouleaux formation were observed under a phase contrasted microscopy (IMT-2, Olympus Co.). Then, 1 μl of Yoshixol was added in the blood sample when all visual fields could not be discriminated as an normal individual erythrocyte by thrombus formation. Then, a thrombolytic process of the thrombus was investigated and the process was recorded to a video tape via a collar video camera (CCD-IRIS, Sony Co.). The video pictures were analyzed as a liquid phenomena by an original software of dynamic state analysis. […] And, while original form of erythrocyte was recovered, each erythrocyte was marvelously dispersed from thrombus. […] And, Yoshixol has a potential to improve circulatory hindrance which is disturbed physiological role on original blood such as fluidability by being solidability. Yoshixol can apply as thrombolytic agents as well as inhibitory agents for thrombus formation.
# [5] = target: thrombin (Homo sapiens, UniProt P00734); assay: Thrombin treated with Yoshixol added in fibrinogen, thromboelastgram; type: biochemical; parameters: thrombin (Behlinger Manheim-Yamanouchi Co.) was investigated by electrophoresis; purchased Behlinger Manheim-Yamanouchi Co
# Procedure: Effect of Yoshixol (4 μl) on human blood coagulation and fibrin formation (thrombin was added to fibrinogen) were investigated by thromboelastgram (Hellige GMBH, West Germany). Also, a magnitude of fibrin network which is formed at human blood coagulation was investigated by a scanning electron microscopy. Coagulation of human blood without treatment with Yoshixol was started within 1-2 min so that maximum level of coagulation occurred approximately within 15 min, followed by gradual decrease due to activation of fibrinolytic system. Immediately after thrombin is added on fibrinogen, viscosity of the sample started to increase, reached to a maximum level within 5-6 minutes. This maximum level was maintained for periods of 6 hours which was observed (referred FIG. 3a). However, when Yoshixol (4 μl) was added in 0.4 ml of whole blood or fibrinogen (160 mg/dl), onset time of blood coagulation and fibrin formation was delayed to 4-5 minutes and maximum aggregation time was occurred within 6-8 minutes. Maximum level of coagulation after the treatment was inhibited by 90% of control which level was maintained over 6 hours of investigation (referred FIG. 3b).
# [6] = beagles, oral 10 μl per body weight
# [7] = beagles, oral 10 μl per body weight, 1 week
compound,measurement,setting,value
"C=C1CC(C)(C)C=CC1=O [Yoshixol, 4,4-dimethyl-6-methylene-2-cyclohexen-1-one]",albumin/globulin ratio,[6],elevated 3 days after administration
same,creatinine phosphokinase,[6],fell
same,"enzymes such as γ-GPT, GOT, GPT",[6],also fell
same,albumin level,[7],did not change
same,"changes in concentration of total bilirubin, GOT, GPT, TTT, ZTT, cholinesterase, serum iron, potassium, sodium, chloride, inorganic phosphorus and calcium",[7],did not found
same,difference in concentration of total cholesterol and triglyceride between groups,[7],did not occur
same,level of uric acid,"beagles, oral 10 μl per body weight, during the administration",maintained at lower level
same,total proteins in blood serum,"beagles, oral 10 μl per body weight, recovery 1 week after stop",increased 3 days after administration
same,levels of nonproteins nitrogen and creatinine in the serum,"beagles, oral 10 μl per body weight, since 1 day after administration",70-80 % of the control
same,TTT and ZTT,"dog, in vivo, po",did not show abnormal values
same,"changes in numbers of red blood cells, white blood cells and platelets","dog, in vivo, po",did not found
same,epithelialization of wounded skin,"[1]; dogs, 10 μl/Kg per day intravenously for one week, 3 month after implantation",well epithelialization was found
same,implantation of transplanted rabbit skin,"[1]; dogs, 10 μl/Kg per day of Yoshixol intravenously for one week, no antibiotics or immunosuppressants",implanted on the back of dog over 1 month without a rejection reaction and bacterial infection
same,behaviors of adult mongrel dog,"[1]; intravenous administration, compared with before the treatment","became vigor, youthful and appetite-well"
same,"PCR bounds versus P−, D−, Pm−, group P+, D−, Pm−",[2]; only primer processed by Yoshixol (5 μl with 5 μl),did not differ
same,"PCR bounds versus P−, D−, Pm−, group P−, D+, Pm−",[2]; only snake DNA processed by Yoshixol (5 μl with 5 μl),did not differ
same,histological observation of the bacilli,[3],swelled as likely as a balloon and were ruptured
same,hemolysis due to swelling and rupturing each erythrocyte,[4]; 1 μl of Yoshixol in 1 ml blood sample,did not occur
same,thrombus after adding Yoshixol,[4]; 1 μl of Yoshixol in 1 ml blood sample with thrombus,completely individualized to each erythrocyte
same,aggregation reaction on thromboelastgram,[5],any of aggregation reaction was not be found
